Key:
[1] = test system: trypanothione synthetase of T. b. brucei (TbTryS); assay: TryS activity screening assay on recombinant TbTryS; assay type: biochemical; details: % activity at 30 μM compound, errors 2 SD
Procedure: TryS from different trypanosomatids was produced in recombinant form with an N-terminal His-tag. The constructs pET-15b TbTryS and pET-28c(+)LiTryS were used to express TryS of T. b. brucei 427 (MITat1.4, GenBank accession protein id CAC87573.1), and L. infantum JPCM5 (GenBank accession protein id CAM69145.1). E. coli strain BL21 (DE3) served as the expression host. For TbTryS, the cells were cultured in a medium based in Terrific Broth and induction with isopropyl 1-thio-β-D-galactopyranoside (IPTG), while for LiTryS, the cells were cultured in ZYM-5052 auto-induction medium. For a detailed description of the expression, see Benítez et al.. The purification was performed by immobilised metal affinity chromatography in a HisTrap Fast Flow column (GE Healthcare) followed by size exclusion chromatography. […] The fractions containing recombinant TryS with ≥95% purity were pooled and concentrated to >10 mg protein/mL using a 10 kDa cut-off Amicon filter (Millipore, Billerica, CA). Glycerol was added at a final concentration of 40% (v/v). The samples were stored at -80°C. Enzyme purity and activity were assessed by SDS-PAGE (12%) under reducing conditions and by the end-point TryS assay (see TryS activity screening assay), respectively. Protein concentration was determined using the bicinchoninic acid assay with bovine serum albumin as standard. The protocols yielded 25–30 mg TbTryS or LiTryS per litre of culture medium and homogeneous specific activity.
For all TryS, ATP was used at 150 μM because of a high background signal at higher concentrations and Spd fixed at 2 mM, in agreement with the intracellular levels calculated from data reported in the literature for trypanosomatids. GSH was adjusted to 0.05 and 0.25 mM for TbTryS and LiTryS, respectively, to avoid substrate inhibition or to approach physiological concentrations. […] Microtiter plate wells were loaded with 5 μL of the test compound, DMSO (reaction control) or a TryS specific inhibitor (inhibition control) and 40 μL of MM solution. The reactions were then started by adding 5 μL of TryS (2 and 3*10^−5 μmol*min^-1*mL^-1 for LiTryS and TbTryS, respectively) and stopped after 15 min with 200 μL BIOMOL® GREEN reagent (Enzo Life Sciences). The compounds used as inhibition control were added at concentrations that inhibited 50% TryS activity: 30 μM and 150 nM MOL2008 for TbTryS and LiTryS, respectively. Blanks were prepared for each condition by adding 5 μL of screening reaction buffer instead of the enzyme. The TryS activity is calculated as follows: TrySactivity%=A650nmCi-A650nmCiB/A650nmE-A650nmEB*100%
A650 nm Ci is the mean absorbance at 650 nm for the reaction test with compound I (Ci), A650 nm CiB is the mean absorbance at 650 nm for the blank control with compound I (CiB), A650 nm E is the mean absorbance at 650 nm for the reaction control with DMSO (E) and A650 nm EB is the mean absorbance at 650 nm for the blank control with DMSO (EB). The errors were expressed as 2 standard deviations (SD), SD estimated as σ^n−1.

[2] = test system: murine macrophages J774.A1; assay: Cytotoxicity assays on murine macrophages (WST-1); assay type: cell-based; details: error 1 SD
Procedure: Cytotoxicity assays on murine macrophages. Murine macrophages from the cell line J774.A1 (ATCC® TIB-67TM) were cultivated under a humidified 5% CO2/95% air atmosphere at 37°C in Dulbecco’s modified Eagle’s medium (DMEM) supplemented with 10% (v/v) FBS, 10 U/mL penicillin and 10 μg/mL streptomycin. The experimental protocol for the determination of EC50 values was identical as described by Demoro et al. 2012 [71], with the following change: 200 μL/well of a cell suspension at 6 × 10^4 cells per mL was added in a 96-well culture plate and washed with 150 μL of DMEM. The cytotoxicity of the compounds was evaluated in triplicate using the WST-1 reagent (Roche). The control treatment included cells cultured in the presence of DMSO 1% (v/v). Absorbance at 450 nm (Ai 450 nm), corresponding to the formazan dye produced by metabolically active cells, was measured with an EL 800-microplate reader. The corrected absorbance values at 450 nm (Ai c 450 nm) were obtained by subtracting the corresponding absorbance value at 630 nm (Ai 630 nm) and the blank average (Ablank 450 nm): Aic450nm=Ai450nm-Ai630nm-Ablank450nm
Cell viability (%), with the number of viable cells proportional to the absorbance, was calculated as follows: cellviability%=Aic450nm/Anegativecontrolc450nm*100%
Ai c 450 nm refers to an absorbance obtained from cells treated with compound I at a specific concentration (i) and Anegative control c 450 nm refers to an absorbance obtained from cells in the DMSO-treated control (negative control). The errors were calculated using error propagations and are expressed as one SD, estimated as σ^n−1.

[3] = molecular target: trypanothione synthetase of L. infantum (LiTryS) (Leishmania infantum, UniProt A4I2Z3); assay: TryS activity screening assay on recombinant LiTryS; assay type: biochemical; details: for activity at 30 µM: read-out: LiTryS activity [% at 30 μM]; for IC50: recombinant TryS, errors 2 SD, read-out: LiTryS inhibition [IC50
Chain of trypanothione synthetase of L. infantum (LiTryS) (A4I2Z3 entry or part of it): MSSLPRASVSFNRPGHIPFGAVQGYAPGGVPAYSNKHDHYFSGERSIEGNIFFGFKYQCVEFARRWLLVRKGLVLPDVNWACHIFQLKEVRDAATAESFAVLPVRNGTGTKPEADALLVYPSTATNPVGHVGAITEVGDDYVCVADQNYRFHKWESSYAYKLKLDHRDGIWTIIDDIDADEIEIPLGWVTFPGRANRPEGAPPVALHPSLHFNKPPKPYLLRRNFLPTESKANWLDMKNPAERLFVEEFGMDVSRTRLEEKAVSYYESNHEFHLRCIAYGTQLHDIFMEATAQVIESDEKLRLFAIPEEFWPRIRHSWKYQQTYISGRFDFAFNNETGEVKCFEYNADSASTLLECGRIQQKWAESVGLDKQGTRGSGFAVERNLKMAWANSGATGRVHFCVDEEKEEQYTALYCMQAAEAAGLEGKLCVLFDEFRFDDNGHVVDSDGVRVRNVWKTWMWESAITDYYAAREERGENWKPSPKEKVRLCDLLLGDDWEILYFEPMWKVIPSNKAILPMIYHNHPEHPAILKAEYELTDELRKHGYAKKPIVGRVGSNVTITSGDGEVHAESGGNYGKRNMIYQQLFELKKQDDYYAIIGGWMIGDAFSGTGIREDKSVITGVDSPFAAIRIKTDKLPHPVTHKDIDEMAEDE
How it was run: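 N-His-tagged TryS from E. coli, purified by IMAC and SEC; end-point reaction with 150 μM ATP, 2 mM Spd, GSH 0.05 mM (TbTryS) or 0.25 mM (LiTryS), enzyme 3*10^−5 (TbTryS) or 2*10^−5 (LiTryS) μmol*min^-1*mL^-1. Stopped after 15 min with BIOMOL GREEN; A650 activity relative to blank-corrected DMSO control.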

Row | Structure (SMILES) | TbTryS activity [% at 30 μM] [1] [%] | Macrophage toxicity [% at stated conc.] ([2]; % cell death at 60 μM) [%] | activity at 30 µM [3] [%] | IC50 [3] [nM] | Macrophage toxicity [% at stated conc.] ([2]; % cell death at 50 μM) [%]
1 | CNCCNC(=O)CN1C(=O)Cc2c([nH]c3ccc(I)cc23)-c2ccc(Cl)cc21 [1f, 2-(3-Chloro-9-iodo-6-oxo-7,12-dihydrobenzo[2,3]azepino[4,5-b]indol-5(6H)-yl)-N-[2-(methylamino)ethyl]acetamide] | 82.9 ± 6.5 | 105.8 ± 0.2 | 2.2 ± 0.6 | 70 ± 30 | –
2 | CNCCNC(=O)CN1C(=O)Cc2c([nH]c3ccc(Cl)cc23)-c2ccc(Cl)cc21 [1g, 2-(3,9-Dichloro-6-oxo-7,12-dihydrobenzo[2,3]azepino[4,5-b]indol-5(6H)-yl)-N-[2-(methylamino)ethyl]acetamide] | 82.8 ± 5.9 | – | 2.2 | 390 ± 60 | 101.9 ± 3.6
3 | CNCCNC(=O)CN1C(=O)Cc2c([nH]c3ccc(C(F)(F)F)cc23)-c2ccc(Cl)cc21 [1h, 2-(3-Chloro-6-oxo-9-trifluoromethyl-7,12-dihydrobenzo[2,3]azepino[4,5-b]indol-5(6H)-yl)-N-[2-(methylamino)ethyl]acetamide] | 87.8 ± 4.6 | 102.8 ± 0.4 | 0 | 60 ± 40 | –

Reference: publication PMC10688702, “The indole motif is essential for the antitrypanosomal activity of N^5-substituted paullones” (PLOS ONE, 2023)
